System: MC-38 tumor cells
Assay: MC-38 tumor model, comparison of tucaresol and CTLA-4 antibody (Example 9)
Format: in vivo, mice
Conditions: FIG. 4
Protocol: The treatment with the combination of tucaresol, a PD-1 antibody, and CTLA-4 antibody was compared with the combination of PD-1 antibody and CTLA-4 antibody for their tumor inhibition effects. The tests were performed using seven to ten-week old immune competent mice that were injected subcutaneously with MC-38 tumor cells.
Three testing groups were prepared. Group A was administered with PD-1 antibody (3 mg/kg)/CTLA-4 antibody (3 mg/kg) combined treatment; Group B was administered with a tucaresol (10 mg/kg)/PD-1 antibody (3 mg/kg) CTLA-4 antibody (3 mg/kg) combined treatment; and Group C was administered with a PD-1 antibody (3 mg/kg)/CTLA-4 antibody (10 mg/kg) combined treatment. […]
Each treatment started at tumor size between 40-150 mm^3 and continued until Day 24. To determine the efficacy of each treatment, the following data were collected: mortality rate; the body weight of the mice assessed twice weekly both prior to treatments; the rate of tumor growth as determined by the tumor size measurement (twice every week); the tumor growth index; overall survival rate; the time required to double tumor size and the tumor weight at necropsy.

For `O=Cc1c(O)cccc1OCc1ccc(C(=O)O)cc1` [tucaresol, 4-[(2-formyl-3-hydroxy-phenoxy)methyl]benzoic acid], the “anti-tumor effect of the combination (MC 38 tumor growth)” value (tucaresol 10 mg/kg added to PD-1 antibody (3 mg/kg)/CTLA-4 antibody (3 mg/kg), compared with raising CTLA-4 antibody from 3 mg/kg to 10 mg/kg, until Day 24) was “increased the anti-tumor effect of the combination to a greater extent than increasing the dose of the CTLA-4 antibody” and the inhibiting tumor growth (used together with immune checkpoint inhibitors such as PD-1 antibody, MC-38 tumors in mice) was “more effective in inhibiting tumor growth than CTLA-4 antibody”.
